Test results: US10392348B2, “2-oxo-3,4-dihydroquinoline compounds as plant growth regulators” (Syngenta Participations AG, priority 2015, dated 2019)
Where two headings read alike, the source gives them in different places.

Columns and labels:
[1] = test system: soybean plants (variety S20-G7); test: Reduced plant water use in soybean (foliar spray, repeated weighing of pots); assay type: in vivo; details: vs negative control; for change in vivo at 500 µM / change in vivo at 31.25 µM / change in vivo at 125 µM: Glycine max, foliar; for % WU 0 DAA AM*: 0 DAA a.m.
Summary of the method: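 Daytime water use was tracked by weighing pots of 12-day-old soybean after foliar spray of compound formulated as EC plus EXTRAVON 1 g/20 L. Cumulative total (0-2.5 DAA) sums a.m. and p.m. readings; values baseline-adjusted by covariance analysis against formulation-only negative control.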

[2] = 0 h, Table B1, sprayed at 500 μM, 0 DAA a.m. (10:30-12:50), read-out: % WU 0 DAA AM
[3] = 24 h, Table B1, sprayed at 500 μM, 1 DAA a.m. (7:30-12:50), read-out: % WU 1DAA AM
[4] = 24 h, Table B1, sprayed at 500 μM, 1 DAA p.m. (14:00-19:50), read-out: % WU 1DAA PM
[5] = 24 h, Table B2, rate 31.25 uM, 1 DAA a.m., read-out: % WU 1DAA AM
[6] = 24 h, Table B2, rate 31.25 uM, 1 DAA p.m., read-out: % WU 1DAA PM
[7] = 24 h, Table B2, rate 125 uM, 1 DAA a.m., read-out: % WU 1DAA AM
[8] = 24 h, Table B2, rate 125 uM, 1 DAA p.m., read-out: % WU 1DAA PM
[9] = 24 h, Table B2, rate 500 uM, 1 DAA a.m., read-out: % WU 1DAA AM
[10] = 24 h, Table B2, rate 500 uM, 1 DAA p.m., read-out: % WU 1DAA PM
[11] = 48 h, Table B1, sprayed at 500 μM, 2 DAA a.m. (07:30-12:50), read-out: % WU 2 DAA AM
[12] = 48 h, Table B1, sprayed at 500 μM, 2 DAA p.m. (14:00-19:50), read-out: % WU 2 DAA PM
[13] = 48 h, Table B2, rate 31.25 uM, 2 DAA a.m., read-out: % WU 2 DAA AM
[14] = 48 h, Table B2, rate 31.25 uM, 2 DAA p.m., read-out: % WU 2 DAA PM
[15] = 48 h, Table B2, rate 125 uM, 2 DAA a.m., read-out: % WU 2 DAA AM
[16] = 48 h, Table B2, rate 125 uM, 2 DAA p.m., read-out: % WU 2 DAA PM
[17] = 48 h, Table B2, rate 500 uM, 2 DAA a.m., read-out: % WU 2 DAA AM
[18] = 48 h, Table B2, rate 500 uM, 2 DAA p.m., read-out: % WU 2 DAA PM
[19] = 60 h, Table B1, sprayed at 500 μM, cumulative total WU (0-2.5 DAA), read-out: % WU Total 0 to 2.5 DAA
[20] = 60 h, Table B2, rate 31.25 uM, cumulative total WU (0-2.5 DAA), read-out: % WU Total 0 to 2.5 DAA
[21] = 60 h, Table B2, rate 125 uM, cumulative total WU (0-2.5 DAA), read-out: % WU Total 0 to 2.5 DAA
[22] = 60 h, Table B2, rate 500 uM, cumulative total WU (0-2.5 DAA), read-out: % WU Total 0 to 2.5 DAA

Row | Compound | melting point | change in vivo at 500 µM [1, 2] | change in vivo at 500 µM [1, 3] | change in vivo at 500 µM [1, 4] | change in vivo at 500 µM [1, 11] | change in vivo at 500 µM [1, 12] | change in vivo at 500 µM [1, 19] | further results
1 | CCN1C(=O)CCc2cc(CNS(=O)(=O)c3ccccc3)ccc21 [Compound 2.001, N-[(1-ethyl-2-oxo-3,4-dihydroquinolin-6-yl)methyl]benzenesulfonamide] | 114 to 124 °C | -35.3% | -29.1% | -28.1% | -19.6% | -14.3% | -25.7% | change in vivo at 31.25 µM [1, 5]: -1.8%; change in vivo at 31.25 µM [1, 6]: -0.9%; change in vivo at 125 µM [1, 7]: -10.1%; change in vivo at 125 µM [1, 8]: -10.9%; change in vivo at 500 µM [1, 9]: -36.3%; change in vivo at 500 µM [1, 10]: -33.2%; change in vivo at 31.25 µM [1, 13]: -2.7%; change in vivo at 31.25 µM [1, 14]: -1.5%; change in vivo at 125 µM [1, 15]: -11.7%; change in vivo at 125 µM [1, 16]: -10.1%; change in vivo at 500 µM [1, 17]: -24.2%; change in vivo at 500 µM [1, 18]: -19.5%; change in vivo at 31.25 µM [1, 20]: -1.7%; change in vivo at 125 µM [1, 21]: -11.1%; change in vivo at 500 µM [1, 22]: -31.8%; % WU 0 DAA AM* ([1]; Table B2, rate 31.25 uM): −0.7%; % WU 0 DAA AM* ([1]; Table B2, rate 125 uM): −10.4%; % WU 0 DAA AM* ([1]; Table B2, rate 500 uM): −41.2%
2 | CCN1C(=O)CCc2cc(CNS(=O)(=O)c3ccccc3F)ccc21 [Compound 2.007, N-[(1-ethyl-2-oxo-3,4-dihydroquinolin-6-yl)methyl]-2-fluoro-benzenesulfonamide] | 155 to 163 °C | -14.1% | -7.3% | -6.6% | -8.8% | -5.7% | -8.1% | 
3 | CCN1C(=O)CCc2cc(CNS(=O)(=O)c3ccc(F)cc3)ccc21 [Compound 2.009, N-[(1-ethyl-2-oxo-3,4-dihydroquinolin-6-yl)methyl]-4-fluoro-benzenesulfonamide] | 190 to 191 °C | -5.3% | -2% | -1.2% | -3.1% | -1% | -2.3% | 
4 | CCN1C(=O)CCc2cc(CNS(=O)(=O)c3ccc(OC)cc3)ccc21 [Compound 2.010, N-[(1-ethyl-2-oxo-3,4-dihydroquinolin-6-yl)methyl]-4-methoxy-benzenesulfonamide] | 147 to 150 °C | -15.2% | -2.6% | -1.7% | -3.6% | -2.4% | -4.3% | 
5 | CCN1C(=O)CCc2cc(CNS(=O)(=O)c3ccc(C)cc3C)ccc21 [Compound 2.014, N-[(1-ethyl-2-oxo-3,4-dihydroquinolin-6-yl)methyl]-2,4-dimethyl-benzenesulfonamide] | 199 to 200 °C | -2.8% | -0.2% | -0.9% | -0.9% | -1.7% | -1.1% | 
6 | CCCN1C(=O)CCc2cc(CNS(=O)(=O)c3ccccc3)ccc21 [Compound 3.001, N-[(2-oxo-1-propyl-3,4-dihydroquinolin-6-yl)methyl]benzenesulfonamide] | 159 to 161 °C | -15% | -9.9% | -6.7% | -7.2% | -5.8% | -8.8% | change in vivo at 31.25 µM [1, 5]: -6.9%; change in vivo at 31.25 µM [1, 6]: -5.4%; change in vivo at 125 µM [1, 7]: -15.7%; change in vivo at 125 µM [1, 8]: -15.3%; change in vivo at 500 µM [1, 9]: -36.4%; change in vivo at 500 µM [1, 10]: -33.3%; change in vivo at 31.25 µM [1, 13]: -5.8%; change in vivo at 31.25 µM [1, 14]: -2.2%; change in vivo at 125 µM [1, 15]: -9.3%; change in vivo at 125 µM [1, 16]: -6.3%; change in vivo at 500 µM [1, 17]: -21.4%; change in vivo at 500 µM [1, 18]: -15.1%; change in vivo at 31.25 µM [1, 20]: -5.7%; change in vivo at 125 µM [1, 21]: -14.8%; change in vivo at 500 µM [1, 22]: -31.1%; % WU 0 DAA AM* ([1]; Table B2, rate 31.25 uM): −4.4%; % WU 0 DAA AM* ([1]; Table B2, rate 125 uM): −23.7%; % WU 0 DAA AM* ([1]; Table B2, rate 500 uM): −44.6%
7 | CCCN1C(=O)CCc2cc(CNS(=O)(=O)c3ccccc3C)ccc21 [Compound 3.011, 2-methyl-N-[(2-oxo-1-propyl-3,4-dihydroquinolin-6-yl)methyl]benzenesulfonamide] | 163 to 165 °C | -3.6% | -3.6% | -2.3% | -3.6% | -2.4% | -3% | 
8 | CCCN1C(=O)CCc2cc(CNS(=O)(=O)c3ccc(C)cc3)ccc21 [Compound 3.012, 4-methyl-N-[(2-oxo-1-propyl-3,4-dihydroquinolin-6-yl)methyl]benzenesulfonamide] | 153 to 154 °C | -43.9% | -1.8% | 2.1% | 1.7% | 3% | -5.8% | 
9 | CCCN1C(=O)CCc2cc(CNS(=O)(=O)c3ccc(C(F)(F)F)cc3)ccc21 [Compound 3.015, N-[(2-oxo-1-propyl-3,4-dihydroquinolin-6-yl)methyl]-4-(trifluoromethyl)benzenesulfonamide] | 138 to 140 °C |  |  |  |  |  |  | 
10 | CCCN1C(=O)CCc2cc(CNS(=O)(=O)c3ccc(OC(C)C)cc3)ccc21 [Compound 3.016, 4-isopropoxy-N-[(2-oxo-1-propyl-3,4-dihydroquinolin-6-yl)methyl]benzenesulfonamide] | 138 to 139 °C | -3.6% | -1.3% | -0.5% | -1.1% | 0% | -1.2% | 
11 | CCCN1C(=O)CCc2cc(CNS(=O)(=O)/C=C/c3ccc(C)cc3)ccc21 [Compound 3.059, (E)-N-[(2-oxo-1-propyl-3,4-dihydroquinolin-6-yl)methyl]-2-(p-tolyl)ethenesulfonamide] | 172 to 174 °C |  |  |  |  |  |  | 
12 | CCCN1C(=O)CCc2cc(CNS(=O)(=O)/C=C/c3cccc(Br)c3)ccc21 [Compound 3.070, (E)-2-(3-bromophenyl)-N-[(2-oxo-1-propyl-3,4-dihydroquinolin-6-yl)methyl]ethenesulfonamide] | 148 to 153 °C |  |  |  |  |  |  | 
